# Compound: NC(=O)c1ccc(N(C(N)=O)c2c(F)cccc2F)nc1-c1ccc(F)cc1F [VX-702] + O=C(CCCCCCC(=O)Nc1ccccc1)NO [Vorinostat] (partner 1 µM)
# Assay: relative viability (nuclei count vs DMSO), 5 days (fraction); higher = more cells survive
# Conditions: first compound 2 µM
# Summary of the method: (§1)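 Five library-drug doses in √10 steps were combined with a fixed anchor-drug dose, or a single drug was given alone, by pin tool to lung cancer cell lines in 1536-well plates the day after seeding. Nuclei were stained and counted after 5 days. Relative viability is the nuclei count in treated wells over that in vehicle wells, taken as the median of duplicate plates.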
row,Cell Line,relative viability
1,PC-3 [JPC-3],0.886
2,NCI-H2009,1.03
3,NCI-H2347,0.591
4,NCI-H520,0.74
5,LXF-289,0.786
6,LC-2-ad,0.803
7,201T,1
8,NCI-H1666,0.979
9,NCI-H2023,0.938
10,NCI-H322M,0.93
11,HARA,0.449

# Compound: NC(=O)c1ccc(N(C(N)=O)c2c(F)cccc2F)nc1-c1ccc(F)cc1F [VX-702] + CC(C)C[C@H](NC(=O)[C@H](Cc1ccccc1)NC(=O)c1cnccn1)B(O)O [Bortezomib] (partner 0.002 µM)
# Assay: as above
# Conditions: first compound 0.02 µM
# Summary of the method: as §1
row,Cell Line,relative viability
1,EKVX,1.01
2,COR-L23,1.08
3,NCI-H1437,0.592
4,RERF-LC-KJ,1.18
5,NCI-H1734,0.865
6,BEN,0.823
7,NCI-H460,1.14
8,H3255,0.716
9,SK-LU-1,1.15
10,NCI-H23,1.07
11,SW 1573,1.02
12,NCI-H838,0.857
13,EPLC-272H,0.897
14,NCI-H3122,0.991
15,NCI-H1915,1.06
16,NCI-H1975,0.367
17,HCC-366,1.01

row,Cell Line,relative viability
1,NCI-H2087,0.824
2,LCLC-97TM1,0.526
3,NCI-H661,0.731
4,NCI-H2405,1.04
5,NCI-H1993,0.841
6,PC-3 [JPC-3],0.836
7,NCI-H2009,1.29
8,NCI-H2347,0.995
9,NCI-H520,0.4
10,LXF-289,1.03
11,LC-2-ad,1.08
12,201T,1.13
13,NCI-H1666,0.906
14,NCI-H2023,0.862
15,NCI-H322M,1.22
16,HARA,0.605

# Same assay, conditions: first compound 0.2 µM
row,Cell Line,relative viability
1,EKVX,0.738
2,COR-L23,1.02
3,NCI-H1437,0.631
4,RERF-LC-KJ,1.06
5,NCI-H1734,0.844
6,BEN,0.545
7,NCI-H460,1.15
8,H3255,0.772
9,NCI-H23,0.892
10,SW 1573,0.902
11,NCI-H838,0.94
12,EPLC-272H,0.836
13,NCI-H3122,0.958
14,NCI-H1915,0.893
15,NCI-H1975,0.281
16,HCC-366,0.969

row,Cell Line,relative viability
1,NCI-H2087,0.889
2,LCLC-97TM1,0.592
3,NCI-H661,0.731
4,NCI-H2405,0.604
5,NCI-H1993,1.01
6,PC-3 [JPC-3],0.796
7,NCI-H2009,1.15
8,NCI-H2347,0.83
9,NCI-H520,0.663
10,LXF-289,1.03
11,LC-2-ad,1.08
12,201T,1.07
13,NCI-H1666,0.672
14,NCI-H2023,0.946
15,NCI-H322M,1.25
16,HARA,1.05

# Same assay, conditions: first compound 0.6325 µM
row,Cell Line,relative viability
1,EKVX,1.05
2,COR-L23,1.15
3,NCI-H1437,0.587
4,RERF-LC-KJ,1.2
5,NCI-H1734,0.847
6,BEN,0.658
7,NCI-H460,1.22
8,H3255,1.02
9,SK-LU-1,1.19
10,NCI-H23,1.22
11,SW 1573,0.871
12,NCI-H838,0.796
13,EPLC-272H,1.05
14,NCI-H3122,0.987
15,NCI-H1915,0.991
16,NCI-H1975,0.353
17,HCC-366,1.12

row,Cell Line,relative viability
1,NCI-H2087,0.818
2,LCLC-97TM1,0.667
3,NCI-H661,1.11
4,NCI-H2405,0.702
5,NCI-H1993,0.992
6,PC-3 [JPC-3],0.966
7,NCI-H2009,1.22
8,NCI-H2347,1.02
9,NCI-H520,0.479
10,LXF-289,0.998
11,LC-2-ad,1.12
12,201T,1.17
13,NCI-H1666,0.989
14,NCI-H2023,1.06
15,NCI-H322M,1.31
16,HARA,1.17

# Same assay, conditions: first compound 2 µM
row,Cell Line,relative viability
1,EKVX,1.42
2,COR-L23,1.21
3,NCI-H1437,0.595
4,RERF-LC-KJ,1.28
5,NCI-H1734,0.738
6,BEN,0.922
7,NCI-H460,1.17
8,H3255,0.917
9,SK-LU-1,1.8
10,NCI-H23,1.16
11,SW 1573,1
12,NCI-H838,0.937
13,EPLC-272H,0.956
14,NCI-H3122,0.931
15,NCI-H1915,1.01
16,NCI-H1975,0.391
17,HCC-366,0.634

row,Cell Line,relative viability
1,NCI-H2087,0.914
2,LCLC-97TM1,0.709
3,NCI-H661,1.21
4,NCI-H2405,0.977
5,NCI-H1993,1.01
6,PC-3 [JPC-3],0.809
7,NCI-H2009,1.3
8,NCI-H2347,1.13
9,NCI-H520,0.677
10,LXF-289,1.02
11,LC-2-ad,1.22
12,201T,1.17
13,NCI-H1666,0.606
14,NCI-H2023,0.947
15,NCI-H322M,1.18
16,HARA,1.34

# Compound: NC(=O)c1ccc(N(C(N)=O)c2c(F)cccc2F)nc1-c1ccc(F)cc1F [VX-702] + Cc1nc(Nc2ncc(C(=O)Nc3c(C)cccc3Cl)s2)cc(N2CCN(CCO)CC2)n1 [Dasatinib] (partner 0.075 µM)
# Assay: as above
# Conditions: first compound 0.02 µM
# Summary of the method: as §1
row,Cell Line,relative viability
1,EKVX,0.62
2,COR-L23,0.523
3,NCI-H1437,0.407
4,RERF-LC-KJ,0.837
5,NCI-H1734,0.51
6,BEN,0.337
7,NCI-H460,0.547
8,H3255,0.312
9,SK-LU-1,0.222
10,NCI-H23,0.834
11,SW 1573,0.566
12,NCI-H838,0.348
13,EPLC-272H,0.359
14,NCI-H3122,0.921
15,NCI-H1915,0.328
16,NCI-H1975,0.365
17,HCC-366,0.786

row,Cell Line,relative viability
1,NCI-H2087,0.953
2,LCLC-97TM1,0.971
3,NCI-H661,0.841
4,NCI-H2405,0.259
5,NCI-H1993,0.512
6,PC-3 [JPC-3],1.03
7,NCI-H2009,0.35
8,NCI-H2347,0.325
9,NCI-H520,0.2
10,LXF-289,0.234
11,LC-2-ad,0.724
12,201T,0.578
13,NCI-H1666,0.765
14,NCI-H2023,0.534
15,NCI-H322M,0.241
16,HARA,0.224

# Same assay, conditions: first compound 0.2 µM
row,Cell Line,relative viability
1,EKVX,0.491
2,COR-L23,0.475
3,NCI-H1437,0.34
4,RERF-LC-KJ,0.781
5,NCI-H1734,0.413
6,BEN,0.255
7,NCI-H460,0.471
8,H3255,0.301
9,SK-LU-1,0.177
10,NCI-H23,0.896
11,SW 1573,0.455
12,NCI-H838,0.285
13,EPLC-272H,0.332
14,NCI-H3122,0.84
15,NCI-H1915,0.282
16,NCI-H1975,0.344

row,Cell Line,relative viability
1,HCC-366,0.601
2,NCI-H2087,0.856
3,LCLC-97TM1,0.803
4,NCI-H661,0.811
5,NCI-H2405,0.207
6,NCI-H1993,0.611
7,PC-3 [JPC-3],1.05
8,NCI-H2009,0.401
9,NCI-H520,0.194
10,LXF-289,0.199
11,LC-2-ad,0.581
12,201T,0.542
13,NCI-H2023,0.724
14,NCI-H322M,0.265
15,HARA,0.268

# Same assay, conditions: first compound 0.6325 µM
row,Cell Line,relative viability
1,EKVX,0.527
2,COR-L23,0.559
3,NCI-H1437,0.439
4,RERF-LC-KJ,0.87
5,NCI-H1734,0.445
6,BEN,0.317
7,NCI-H460,0.534
8,H3255,0.44
9,SK-LU-1,0.196
10,NCI-H23,1.02
11,SW 1573,0.427
12,NCI-H838,0.304
13,EPLC-272H,0.362
14,NCI-H3122,0.752
15,NCI-H1915,0.281
16,NCI-H1975,0.402
17,HCC-366,0.598

row,Cell Line,relative viability
1,NCI-H2087,0.959
2,LCLC-97TM1,0.817
3,NCI-H661,0.995
4,NCI-H2405,0.228
5,NCI-H1993,0.615
6,PC-3 [JPC-3],1.07
7,NCI-H2009,0.429
8,NCI-H2347,0.277
9,NCI-H520,0.176
10,LXF-289,0.212
11,LC-2-ad,0.619
12,201T,0.587
13,NCI-H1666,0.876
14,NCI-H2023,0.576
15,NCI-H322M,0.247
16,HARA,0.36

# Same assay, conditions: first compound 2 µM
row,Cell Line,relative viability
1,EKVX,0.436
2,COR-L23,0.673
3,NCI-H1437,0.467
4,RERF-LC-KJ,0.901
5,NCI-H1734,0.371
6,BEN,0.304
7,NCI-H460,0.408
8,H3255,0.409
9,SK-LU-1,0.206
10,NCI-H23,0.674
11,SW 1573,0.426
12,NCI-H838,0.339
13,EPLC-272H,0.377
14,NCI-H3122,0.789
15,NCI-H1915,0.327
16,NCI-H1975,0.382
17,HCC-366,0.22

row,Cell Line,relative viability
1,NCI-H2087,0.967
2,LCLC-97TM1,1.01
3,NCI-H661,1.06
4,NCI-H2405,0.193
5,NCI-H1993,0.59
6,PC-3 [JPC-3],1.06
7,NCI-H2009,0.452
8,NCI-H2347,0.294
9,NCI-H520,0.24
10,LXF-289,0.225
11,LC-2-ad,0.901
12,201T,0.576
13,NCI-H1666,0.641
14,NCI-H2023,0.662
15,NCI-H322M,0.249
16,HARA,0.329

# Source: the supplement of paper PMC10307832
